“And” between values parts separate entries of the source, which are not always exact repeats. Equal entries are not always repeated. Inconclusive results and toxic doses are left out. Rule for the calls: active = survival T/C of 150% or more; inactive = T/C below 125% in these data.
Test system: P388 leukemia ip, CD2F1 mice, survival T/C
Test: NCI In Vivo Anticancer Drug Screen. Data for tumor model P388 Leukemia (intraperitoneal) in CD2F1 (CDF1) mice
Settings: endpoint: median survival time, higher = longer survival
Outline: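 Mice carrying the transplanted tumor received test compound or vehicle. Survival was recorded in each group, and the value is the treated-group measurement divided by that of the vehicle-treated control group.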

[1] = dose: 50.0 mg/kg/injection, schedule: Q01DX009 (ip), vehicle: Klucel (hydroxypropylcellulose) (HPC)
[2] = dose: 100.0 mg/kg/injection, schedule: Q01DX009 (ip), vehicle: Klucel (hydroxypropylcellulose) (HPC)
[3] = dose: 12.5 mg/kg/injection, schedule: Q04DX003 (ip), vehicle: saline
[4] = dose: 25.0 mg/kg/injection, schedule: Q04DX003 (ip), vehicle: saline
[5] = dose: 50.0 mg/kg/injection, schedule: Q04DX003 (ip), vehicle: saline
[6] = dose: 200.0 mg/kg/injection, schedule: Q01DX009 (ip), vehicle: Klucel (hydroxypropylcellulose) (HPC)

Measured: T/C

CN(C)CCOC1=Nc2ccccc2O/C1=C/c1ccccc1
inactive: [1] 100 % of control | [2] 111 % of control

O=C1NC(=O)C2(CCCC2)c2ccncc21
inactive: dose: 6.25 mg/kg/injection, schedule: Q04DX002 (ip), vehicle: saline with Tween-80 96 % of control | dose: 12.5 mg/kg/injection, schedule: Q04DX002 (ip), vehicle: saline with Tween-80 96 % of control

CN1CCCN(C)C1c1cc(Cl)ccc1O
inactive: dose: 6.25 mg/kg/injection, schedule: Q01DX009 (ip), vehicle: saline sonified 90 % of control | dose: 12.5 mg/kg/injection, schedule: Q01DX009 (ip), vehicle: saline sonified 100 % of control | dose: 25.0 mg/kg/injection, schedule: Q01DX009 (ip), vehicle: saline sonified 90 % of control

Cc1ccc(CNc2ccc(I)cc2)cc1
inactive: dose: 100.0 mg/kg/injection, schedule: Q01DX009 (ip), vehicle: other 104 % of control | dose: 200.0 mg/kg/injection, schedule: Q01DX009 (ip), vehicle: other 95 % of control | dose: 400.0 mg/kg/injection, schedule: Q01DX009 (ip), vehicle: other 95 % of control

CCCC[C@H]1C(=O)O[C@H](C)[C@H](NC(=O)c2cccc(NC=O)c2O)C(=O)O[C@@H](C)[C@@H]1OC(=O)CC(C)C
inactive: dose: 0.12 mg/kg/injection, schedule: Q01DX009 (ip), vehicle: Klucel (hydroxypropylcellulose) (HPC) 105 % of control | dose: 0.25 mg/kg/injection, schedule: Q01DX009 (ip), vehicle: Klucel (hydroxypropylcellulose) (HPC) 105 % of control | dose: 0.5 mg/kg/injection, schedule: Q01DX009 (ip), vehicle: Klucel (hydroxypropylcellulose) (HPC) 109 % of control | dose: 1.0 mg/kg/injection, schedule: Q01DX009 (ip), vehicle: Klucel (hydroxypropylcellulose) (HPC) 119 % of control

CS(=O)(=O)Nc1nc2ccccc2c(=O)o1
inactive: dose: 60.0 mg/kg/injection, schedule: Q01DX005 (ip), vehicle: Klucel (hydroxypropylcellulose) (HPC) 107 % of control | dose: 120.0 mg/kg/injection, schedule: Q01DX005 (ip), vehicle: Klucel (hydroxypropylcellulose) (HPC) 102 % of control | dose: 240.0 mg/kg/injection, schedule: Q01DX005 (ip), vehicle: Klucel (hydroxypropylcellulose) (HPC) 99 % of control

Cc1cc2c(cc1C)[n+](=O)c1c(n2[O-])CCC1
inactive: dose: 60.0 mg/kg/injection, schedule: Q01DX005 (ip), vehicle: saline with Tween-80 100 % of control | dose: 120.0 mg/kg/injection, schedule: Q01DX005 (ip), vehicle: saline with Tween-80 95 % of control

C=CC1CCCCC1C=C (configuration not stated)
inactive: [3] 100 % of control | [4] 113 % of control | [5] 100 % of control

O=C(NO)C1CCCCC1O (configuration not stated)
inactive: [3] 100 % of control | [4] 100 % of control | [5] 110 % of control | dose: 400.0 mg/kg/injection, schedule: Q04DX003 (ip), vehicle: saline 110 % of control

CSc1cnc(N)s1
inactive: dose: 12.5 mg/kg/injection, schedule: Q01DX009 (ip), vehicle: Klucel (hydroxypropylcellulose) (HPC) 108 % of control | dose: 25.0 mg/kg/injection, schedule: Q01DX009 (ip), vehicle: Klucel (hydroxypropylcellulose) (HPC) 115 % of control | [1] 100 % of control | [2] 104 % of control

CC(C)(C)C(=O)CC(=O)C(F)(F)C(F)(F)C(F)(F)F.CC(C)(C)C(=O)CC(=O)C(F)(F)C(F)(F)C(F)(F)F.CC(C)(C)C(=O)CC(=O)C(F)(F)C(F)(F)C(F)(F)F.[Er]
inactive: [2] 97 % of control | [6] 95 % of control | dose: 400.0 mg/kg/injection, schedule: Q01DX009 (ip), vehicle: Klucel (hydroxypropylcellulose) (HPC) 112 % of control

CCOC(=O)C1=C(C)O/C(=C/c2ccc(OC)cc2)C1=O
inactive: [1] 98 % of control | [2] 93 % of control | [6] 100 % of control

O=C(/C=C(\C(=O)c1ccccc1)c1ccccc1)c1ccccc1
inactive: dose: 50.0 mg/kg/injection, schedule: Q01DX009 (ip), vehicle: saline sonified 100 % of control | dose: 100.0 mg/kg/injection, schedule: Q01DX009 (ip), vehicle: saline sonified 100 % of control | dose: 200.0 mg/kg/injection, schedule: Q01DX009 (ip), vehicle: saline sonified 100 % of control

NNc1n[nH]c(=O)c2cnccc12
inactive: dose: 25.0 mg/kg/injection, schedule: Q04DX002 (ip), vehicle: saline with Tween-80 96 % of control | dose: 50.0 mg/kg/injection, schedule: Q04DX002 (ip), vehicle: saline with Tween-80 93 % of control | dose: 100.0 mg/kg/injection, schedule: Q04DX002 (ip), vehicle: saline with Tween-80 100 % of control and 95 % of control
